Test results from US8940705B2, “Method of treating disease and selectively modulating transcriptional regulation by a glucocorticoid receptor by administering aclacinomycin and dexamethasone” (The Regents of the University of California, priority 2009, dated 2015).

Tests used:
Assay type in all cases: cell-based
GR [1] = test: qPCR of endogenous GR target genes, cell line not distinguished (FIG. 4B, 5D); conditions: with dex, 24 hr
Excerpt: (§1) Quantitative PCR. Total RNA isolation used Trizol and Pure Link (Invitrogen). […] Rpl19 expression was used for data normalization.

GR [2] = molecular target: T1, GR (Homo sapiens, UniProt P04150); test: Multi-promoter fluorescent protein reporter compound screen for GR modulators; parameters: endogenous in cells; host or cells: A549; conditions: A549 cells, library compounds 2.5 μM with dex 100 nM; reporter fluorescence relative to plate mean
T1 sequence (P04150 1-777): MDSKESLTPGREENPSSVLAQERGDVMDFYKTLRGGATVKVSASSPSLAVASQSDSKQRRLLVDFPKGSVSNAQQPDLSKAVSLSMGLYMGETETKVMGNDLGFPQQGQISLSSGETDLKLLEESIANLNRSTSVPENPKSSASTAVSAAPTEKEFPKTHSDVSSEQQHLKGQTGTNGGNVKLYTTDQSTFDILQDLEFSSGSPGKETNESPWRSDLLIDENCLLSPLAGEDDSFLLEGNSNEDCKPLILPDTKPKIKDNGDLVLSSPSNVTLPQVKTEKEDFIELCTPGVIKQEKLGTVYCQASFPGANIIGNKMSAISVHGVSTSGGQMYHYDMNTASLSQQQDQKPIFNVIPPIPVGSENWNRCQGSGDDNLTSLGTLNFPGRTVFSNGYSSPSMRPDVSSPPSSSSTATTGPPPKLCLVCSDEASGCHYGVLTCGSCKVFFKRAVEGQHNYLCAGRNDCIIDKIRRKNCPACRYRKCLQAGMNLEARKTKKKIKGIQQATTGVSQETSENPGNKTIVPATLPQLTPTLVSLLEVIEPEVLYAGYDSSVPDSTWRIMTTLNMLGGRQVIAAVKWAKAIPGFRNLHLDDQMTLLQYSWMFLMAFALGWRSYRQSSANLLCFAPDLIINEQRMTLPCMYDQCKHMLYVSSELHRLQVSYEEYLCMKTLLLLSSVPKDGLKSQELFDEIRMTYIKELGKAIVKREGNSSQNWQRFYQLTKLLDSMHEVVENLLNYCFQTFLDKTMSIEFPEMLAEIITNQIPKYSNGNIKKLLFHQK
Protocol: Compound Screen. A549 cells were transfected with an equal mixture of pENaC-CFP, pGILZ-YFP, pFKBP5-OFP (1.3 μg each), or with pSV40-ChFP (4 μg). The next day, cells were mixed (˜1.8×10^4 of the cells triple-transfected with pENaC-CFP, pGILZ-YFP, pFKBP5-OFP; ˜2×10^3 cells transfected with pSV40-ChFP) and replated into 96 well plates (Costar 3603). 2 hours later, library compounds (2.5 μM) and dex (100 nM) were added using a Biomek robot. The following day, cells were fixed for 4 minutes in 4% paraformaldehyde and fluorescence was measured sequentially for each reporter using a Safire plate reader (Tecan). Hits were scored based on the mean and standard deviation (s.d.) of the experimental wells on each plate. Criteria for a hit were if one reporter was more than 1.5×s.d. from the mean in duplicate, or if two reporters were more than 0.8×s.d. from the mean in duplicate. If the control SV40-ChFP was more than 2×s.d. from the mean in a single plate, or 0.8×s.d. in duplicate plates (in the same direction as the GR reporters), the well was not scored as a hit.
We used the system of Example 1 to screen a library of 1040 natural products and FDA-approved drugs for modulators of GR signaling (Abbott, A. Nature 417:109). The screen design is outlined in FIG. 2. The pENaC-CFP, pGILZ-YFP, and pFKBP5-OFP reporters indicated GR signaling, while pSV40-mCh, an internal control, excluded non-specific transcription inhibitors and toxins. We screened the library in duplicate in the presence of saturating dex (100 nM). Z′, a function that reflects the ability to discriminate between control and experimental wells (Zhang, J. H. et al., J Biomol Screen 4:67-73 (1999)), was determined for dex treatment of each GR reporter. The Z′ values were: Z′(ENAC-CFP)=0.68; Z′(GILZ-YFP)=0.64; and Z′(FKBP5-OFP)=0.66. These indicate that the screen should efficiently identify compounds that increase or decrease fluorescence from any of the three experimental promoters (Zhang, J. H. et al., J Biomol Screen 4:67-73 (1999)).

GR [3] = molecular target: T1, GR; test: Luciferase assays, GR-responsive reporters, A549 cells; parameters: endogenous in cells; host or cells: A549; conditions: for Dose dependent: whether the drug acted dose-dependently on GR-luciferase reporters; for GR activity (GR-mediated induction of pENaC-luc reporter): pENaC-luc and pSV40-rl
Protocol: (§2) Transfections. The day prior to transfection, ˜3×10^5 cells were plated in 6-well dishes. Transfections used Lipofectamine 2000 (Invitrogen). 4 μg of total plasmid DNA were used for each transfection. For A549 cells, 500 μL of DNA/lipofectamine complex was added to 1.5 ml of DMEM with pen/strep and 5% FBS. For U2OS cells, 500 μl of DNA/lipofectamine complex was added to 1.5 ml of Optimem. After 3-4 hours of incubation, media was replaced with standard growth media.
(§3) Luciferase assays. Luciferase assays used the Promega Dual-Luciferase Reporter system. Briefly, cells were transfected with various firefly luciferase plasmids and pSV40-RL at a ratio of 10:1. The day after transfection, cells were split into 96-well dishes and treated with dex and various drugs. Cells were harvested in 50 μl 1XPLB (Promega) 12-18 hr after drug treatment and luciferase assays were performed on 10 μl of lysate. Luminscence was detected using an Ultra Evolution plate reader (Tecan).

GR [4] = molecular target: T1, GR; test: qPCR of endogenous GR target genes, A549 cells; parameters: endogenous in cells; host or cells: A549; conditions: with dex, RPL19 reference
Excerpt: as §1

GR [5] = molecular target: T2, GR (Rattus norvegicus, UniProt P06536); test: Luciferase assays, GR-responsive reporters, U2OS-GR cells; conditions: pENaC-luc and pSV40-rl, with dex
T2 construct: expressed in transfected cells; host or cells: U2OS-GR
T2 sequence (P06536 1-795): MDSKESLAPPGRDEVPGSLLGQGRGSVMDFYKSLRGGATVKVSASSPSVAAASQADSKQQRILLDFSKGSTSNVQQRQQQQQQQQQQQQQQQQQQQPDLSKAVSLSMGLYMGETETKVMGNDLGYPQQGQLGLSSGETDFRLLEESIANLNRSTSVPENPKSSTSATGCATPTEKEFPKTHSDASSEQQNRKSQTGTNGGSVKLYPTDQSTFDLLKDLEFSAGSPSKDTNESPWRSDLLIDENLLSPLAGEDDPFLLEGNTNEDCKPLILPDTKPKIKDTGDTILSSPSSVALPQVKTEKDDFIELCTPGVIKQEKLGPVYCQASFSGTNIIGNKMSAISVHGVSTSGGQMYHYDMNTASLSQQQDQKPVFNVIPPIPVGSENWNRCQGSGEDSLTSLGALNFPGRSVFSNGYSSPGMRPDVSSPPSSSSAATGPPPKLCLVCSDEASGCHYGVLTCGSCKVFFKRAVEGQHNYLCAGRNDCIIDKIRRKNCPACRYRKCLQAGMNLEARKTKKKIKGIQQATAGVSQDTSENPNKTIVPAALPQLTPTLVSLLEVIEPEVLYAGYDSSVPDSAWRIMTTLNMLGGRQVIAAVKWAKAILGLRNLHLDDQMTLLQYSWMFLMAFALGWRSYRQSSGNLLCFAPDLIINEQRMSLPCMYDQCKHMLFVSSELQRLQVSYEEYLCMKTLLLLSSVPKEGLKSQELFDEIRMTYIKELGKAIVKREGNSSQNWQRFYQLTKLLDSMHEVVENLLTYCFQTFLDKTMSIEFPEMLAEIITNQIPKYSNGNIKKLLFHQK
Protocol: as §2, §3

| Compound | ENaC-CFP (GR [2]) | FKBP5-OFP (GR [2]) | GILZ-YFP (GR [2]) | Dose dependent (GR [3]) | GR activity (GR-mediated induction of pENaC-luc reporter) (GR [3]; A549 cells, with dex) | other results |
| --- | --- | --- | --- | --- | --- | --- |
| Cc1cc(C2CCCCC2)n(O)c(=O)c1 [Ciclopirox olamine] | ↓^c (0.8 to 2 s.d. less than the mean (↓)) | no effect | ↓ (0.8 to 2 s.d. less than the mean (↓)) | dose dependent effects and yes |  | expression of endogenous GR target genes (qPCR), overall (GR [1]): general GR antagonist |
| CC[C@@]1(O)C[C@H](O[C@H]2C[C@H](N(C)C)[C@H](O[C@H]3C[C@@H]4O[C@H]5CC(=O)[C@H](C)O[C@H]5O[C@@H]4[C@H](C)O3)[C@H](C)O2)c2c(cc3c(c2O)C(=O)c2c(O)ccc(O)c2C3=O)[C@H]1C(=O)OC [Cin B, Cinerubin (Cin) B] |  |  |  |  | potently inhibited GR activity | expression of endogenous GR target genes (relative mRNA, qPCR) (GR [4]): inhibited GR at the tested promoters |
| COc1cccc2c1C(=O)c1c(O)c3c(c(O)c1C2=O)C[C@@](O)(C(=O)CO)C[C@@H]3O[C@H]1C[C@H](N)[C@H](O)[C@H](C)O1 [Doxorubicin] |  |  |  |  | inhibited GR |  |
| O=c1oc2c(O)c(O)cc3c(=O)oc4c(O)c(O)cc1c4c23 [Ellagic Acid] | No effect | ↓ (0.8 to 2 s.d. less than the mean (↓)) | ↓ (0.8 to 2 s.d. less than the mean (↓)) | no |  |  |
| CCCCCC(=O)O[C@]1(C(C)=O)CC[C@H]2[C@@H]3CCC4=CC(=O)CC[C@]4(C)[C@H]3CC[C@@]21C [Hpg. caproate, Hydroxyprogesterone caproate] | No effect | ↓↓↓ (more than 2 standard deviations (s.d.) less than the mean (↓↓↓)) | ↓↓↓ (more than 2 standard deviations (s.d.) less than the mean (↓↓↓)) | yes |  | expression of endogenous GR target genes (qPCR), overall (GR [1]): selectively modulated endogenous GR target genes; induction of endogenous ENaC (qPCR) (GR [1]): no impact; induction of endogenous FKBP5 (qPCR) (GR [1]): reduced induction; induction of endogenous GILZ (qPCR) (GR [1]): reduced induction; Dose dependent (GR [3]; listed as Hpg): dose dependent effects |
| C[N+]1(C)CCCC(OC(=O)C(O)(c2ccccc2)c2ccccc2)C1 (stereo not shown) [Mepenzolate] | No effect | ↓ (0.8 to 2 s.d. less than the mean (↓)) | ↓ (0.8 to 2 s.d. less than the mean (↓)) | no |  |  |
| O=C1c2c(O)ccc(O)c2C(=O)c2c(NCCNCCO)ccc(NCCNCCO)c21 [Mitoxantrone] | ↓↓↓ (more than 2 standard deviations (s.d.) less than the mean (↓↓↓)) | ↓↓↓ (more than 2 standard deviations (s.d.) less than the mean (↓↓↓)) | ↓↓↓ (more than 2 standard deviations (s.d.) less than the mean (↓↓↓)) | yes | antagonists of GR | GR activity (luciferase reporter) (GR [5]): inhibited GR |
| O=C1C=CC(=C(c2ccccc2)c2ccc(O)cc2)C=C1 [NSC55861] |  |  |  |  | dose dependently reduced GR activity |  |
| O=C(/C=C/c1ccccc1)/C=C/c1ccccc1O [NSC636788] |  |  |  |  | dose dependently reduced GR activity |  |
| COC(=O)[C@H]1[C@H]2C[C@@H]3c4[nH]c5cc(OC)ccc5c4CCN3C[C@H]2C[C@@H](OC(=O)c2cc(OC)c(OC)c(OC)c2)[C@@H]1OC [Reserpine] | ↑ (0.8 to 2 s.d. greater than the mean (↑)) | ↑ (0.8 to 2 s.d. greater than the mean (↑)) | ↑ (0.8 to 2 s.d. greater than the mean (↑)) | no |  |  |
| O=C1C=CC(=C(c2ccc(O)cc2)c2ccc(O)cc2)C=C1 [Rosolic Acid] | ↓ (0.8 to 2 s.d. less than the mean (↓)) | ↓ (0.8 to 2 s.d. less than the mean (↓)) | No effect | yes |  | expression of endogenous GR target genes (qPCR), overall (GR [1]): selectively modulated endogenous GR target genes; induction of endogenous ENaC (qPCR) (GR [1]): inhibited; induction of endogenous FKBP5 (qPCR) (GR [1]): inhibited; induction of endogenous GILZ (qPCR) (GR [1]): failed to inhibit; Dose dependent (GR [3]; listed as rosolic acid): dose dependent effects |
| CS(=O)(=O)c1ccc([C@@H](O)[C@@H](CO)NC(=O)C(Cl)Cl)cc1 [Thiamphenicol] | No effect | ↑↑↑^e (more than 2 s.d. greater than the mean (↑↑↑)) | No effect | no |  |  |
| COc1cccc2c1C(=O)c1c(O)c3c(c(O)c1C2=O)C[C@@](O)(C(C)=O)C[C@@H]3O[C@H]1C[C@H](N)[C@H](O)[C@H](C)O1 [daunorubicin] |  |  |  |  | inhibited GR |  |
| a amanitin |  |  |  |  |  | effect on GR-dependent reporter pENaC-luc compared with GR-independent constitutive reporter pSV40-rl (GR [3]; A549 cells, with dex): reduced the activity of both reporters to similar extents |
